Calls of active or inactive are those of the source. No cut-off for these calls is given here.
Legend:
[1] = Binding affinity to human Ca2+ channel diltiazem site by radioligand displacement assay
Nischarin = Nischarin (Homo sapiens, UniProt Q9Y2I1); assay: Binding affinity to I1 receptor by radioligand displacement assay
[2] = biological target: 5-hydroxytryptamine receptor 1A (Homo sapiens, UniProt P08908); assay: Binding affinity to human 5-HT1A receptor by radioligand displacement assay
[3] = biological target: Beta-1 adrenergic receptor (Homo sapiens, UniProt P08588); assay: Binding affinity to human adrenergic beta-1 receptor by radioligand displacement assay
Mus musculus [4] = assay: Reversal of 60 seconds delay-induced memory decay in sc dosed C57Bl/6J mouse assessed as positive alteration administered for 1 week by Y-maze test; format: functional, organism-based
[5] = Drug level in C57/6J mouse brain at 20 mg/kg, sc after 60 mins; format: ADME, organism-based; set-up: dose 20 mg/kg, route subcutaneous; settings: read-out: Activity
[6] = Binding affinity to L-type Ca2+ channel verapamil site by radioligand displacement assay
[7] = Binding affinity to PDE5 by enzyme assay
[8] = biological target: Alpha-2A adrenergic receptor (Homo sapiens, UniProt P08913); assay: Binding affinity to human adrenergic alpha2A receptor by radioligand displacement assay
[9] = biological target: Amine oxidase [flavin-containing] A (Homo sapiens, UniProt P21397); assay: Binding affinity to MAOA by radioligand displacement assay
Rattus norvegicus = species: Rattus norvegicus; assay: Hepatic blood flow in rat; format: ADME, organism-based, Liver
[10] = biological target: Sodium-dependent noradrenaline transporter (Homo sapiens, UniProt P23975); assay: Binding affinity to human NE transporter by radioligand displacement assay
[11] = Binding affinity to PDE3 by enzyme assay
Endothelin-1 receptor = Endothelin-1 receptor (Homo sapiens, UniProt P25101); assay: Binding affinity to human ETA receptor by radioligand displacement assay
Chain of Endothelin-1 receptor (P25101 whole entry): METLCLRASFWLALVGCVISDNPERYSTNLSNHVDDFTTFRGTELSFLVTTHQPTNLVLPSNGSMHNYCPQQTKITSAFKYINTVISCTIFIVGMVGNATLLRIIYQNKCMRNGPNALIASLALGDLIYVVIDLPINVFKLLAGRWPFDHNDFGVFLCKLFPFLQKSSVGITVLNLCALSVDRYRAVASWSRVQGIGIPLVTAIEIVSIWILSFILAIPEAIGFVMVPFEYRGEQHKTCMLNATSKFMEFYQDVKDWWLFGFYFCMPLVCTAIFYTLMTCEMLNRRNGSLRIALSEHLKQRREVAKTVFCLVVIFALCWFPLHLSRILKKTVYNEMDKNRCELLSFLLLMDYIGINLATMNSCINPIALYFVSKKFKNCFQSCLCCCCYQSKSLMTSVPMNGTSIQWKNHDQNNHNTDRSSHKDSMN

[12] = Terminal half life in rat plasma at 1 mg/kg, iv and 2 mg/kg, po; format: ADME, organism-based
[13] = Binding affinity to L-type Ca2+ channel DHP binding site by radioligand displacement assay
[14] = biological target: T1, Muscarinic acetylcholine receptor M1 (Homo sapiens) (UniProt P11229); assay: Agonist activity at human muscarinic M1 receptor expressed in CHO-K1 cells assessed as increase of acetylcholine-induced calcium flux by FLIPR assay in presence of atropine; format: functional, cell-based
T1 sequence (whole entry): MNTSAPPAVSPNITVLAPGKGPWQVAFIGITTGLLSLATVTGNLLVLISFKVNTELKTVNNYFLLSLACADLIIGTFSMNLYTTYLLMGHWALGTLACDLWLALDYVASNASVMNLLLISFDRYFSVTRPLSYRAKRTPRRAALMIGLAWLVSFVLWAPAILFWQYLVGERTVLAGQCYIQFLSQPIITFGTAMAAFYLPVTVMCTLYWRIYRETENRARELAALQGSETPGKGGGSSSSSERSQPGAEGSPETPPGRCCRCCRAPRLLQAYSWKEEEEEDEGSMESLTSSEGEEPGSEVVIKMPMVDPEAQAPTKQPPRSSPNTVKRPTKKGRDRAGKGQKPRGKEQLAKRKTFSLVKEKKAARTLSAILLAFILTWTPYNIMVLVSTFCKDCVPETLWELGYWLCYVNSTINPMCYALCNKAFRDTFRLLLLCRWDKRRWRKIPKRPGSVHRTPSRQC

[15] = biological target: Alpha-1D adrenergic receptor (Homo sapiens, UniProt P25100); assay: Binding affinity to human adrenergic Alpha-1D receptor by radioligand displacement assay
Chain of Alpha-1D adrenergic receptor (P25100 whole entry): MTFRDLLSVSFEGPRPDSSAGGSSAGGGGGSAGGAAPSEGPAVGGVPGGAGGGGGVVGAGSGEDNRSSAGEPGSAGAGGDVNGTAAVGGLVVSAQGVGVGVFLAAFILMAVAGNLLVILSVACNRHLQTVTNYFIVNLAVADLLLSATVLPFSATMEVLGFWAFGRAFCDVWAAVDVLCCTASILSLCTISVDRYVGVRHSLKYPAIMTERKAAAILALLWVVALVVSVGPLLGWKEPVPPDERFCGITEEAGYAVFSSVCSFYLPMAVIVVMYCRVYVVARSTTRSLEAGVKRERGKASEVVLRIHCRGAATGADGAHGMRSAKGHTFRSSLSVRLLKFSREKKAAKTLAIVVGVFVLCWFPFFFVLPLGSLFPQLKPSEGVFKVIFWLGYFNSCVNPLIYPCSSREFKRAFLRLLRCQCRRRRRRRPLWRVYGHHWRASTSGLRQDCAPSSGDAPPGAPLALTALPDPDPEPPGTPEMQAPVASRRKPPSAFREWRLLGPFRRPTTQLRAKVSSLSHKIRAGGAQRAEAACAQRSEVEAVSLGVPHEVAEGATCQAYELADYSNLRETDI

Histamine H1 receptor = Histamine H1 receptor (Homo sapiens, UniProt P35367); assay: Binding affinity to human histamine H1 receptor by radioligand displacement assay
Chain of Histamine H1 receptor (P35367 whole entry): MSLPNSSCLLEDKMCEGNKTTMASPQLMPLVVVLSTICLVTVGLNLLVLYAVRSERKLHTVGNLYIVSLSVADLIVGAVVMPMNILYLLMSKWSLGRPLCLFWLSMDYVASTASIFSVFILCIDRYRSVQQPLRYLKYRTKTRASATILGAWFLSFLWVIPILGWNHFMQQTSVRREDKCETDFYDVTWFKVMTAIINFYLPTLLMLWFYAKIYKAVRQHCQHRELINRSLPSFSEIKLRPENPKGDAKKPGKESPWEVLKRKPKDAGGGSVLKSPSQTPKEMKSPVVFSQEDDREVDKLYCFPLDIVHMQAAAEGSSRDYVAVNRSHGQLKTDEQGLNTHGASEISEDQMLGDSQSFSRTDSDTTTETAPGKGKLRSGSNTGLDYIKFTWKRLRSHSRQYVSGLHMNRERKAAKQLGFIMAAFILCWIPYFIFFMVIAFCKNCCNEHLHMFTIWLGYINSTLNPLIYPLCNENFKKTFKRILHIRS

Mus musculus [16] = assay: Reversal of 0 seconds delay-induced memory decay in C57Bl/6J mouse assessed as positive alteration at 0.31 to 20 mg/kg, sc for 1 week by Y-maze test; format: functional; settings: dose mg/kg 0.31-20; route subcutaneous
[17] = biological target: Alpha-2B adrenergic receptor (Homo sapiens, UniProt P18089); assay: Binding affinity to adrenergic alpha2B receptor by radioligand displacement assay
Chain of Alpha-2B adrenergic receptor (P18089 whole entry): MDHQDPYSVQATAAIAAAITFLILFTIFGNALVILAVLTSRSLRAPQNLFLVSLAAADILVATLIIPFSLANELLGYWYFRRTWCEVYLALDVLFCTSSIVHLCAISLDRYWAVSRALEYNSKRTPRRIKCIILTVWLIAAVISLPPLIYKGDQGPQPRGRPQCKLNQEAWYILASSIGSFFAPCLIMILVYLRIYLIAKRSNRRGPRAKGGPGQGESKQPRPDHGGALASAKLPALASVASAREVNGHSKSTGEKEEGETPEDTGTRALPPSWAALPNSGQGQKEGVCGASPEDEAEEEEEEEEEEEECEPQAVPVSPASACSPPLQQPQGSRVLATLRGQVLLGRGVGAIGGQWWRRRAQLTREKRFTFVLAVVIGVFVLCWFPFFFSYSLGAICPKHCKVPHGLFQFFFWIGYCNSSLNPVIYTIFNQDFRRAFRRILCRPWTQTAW

[18] = biological target: Ribosyldihydronicotinamide dehydrogenase [quinone] (Homo sapiens, UniProt P16083); assay: Binding affinity to ML2 (MT3) receptor by radioligand displacement assay
Chain of Ribosyldihydronicotinamide dehydrogenase [quinone] (P16083 whole entry): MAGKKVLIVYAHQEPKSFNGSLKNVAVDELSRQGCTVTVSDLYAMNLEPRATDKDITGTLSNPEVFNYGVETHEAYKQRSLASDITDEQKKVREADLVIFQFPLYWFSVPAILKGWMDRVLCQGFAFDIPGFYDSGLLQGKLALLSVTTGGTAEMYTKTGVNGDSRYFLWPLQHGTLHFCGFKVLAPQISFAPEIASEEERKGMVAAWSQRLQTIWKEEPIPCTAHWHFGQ

[19] = Binding affinity to sigma receptor by radioligand displacement assay
[20] = biological target: 5-hydroxytryptamine receptor 1B (Homo sapiens, UniProt P28222); assay: Binding affinity to 5-HT1B receptor by radioligand displacement assay
Chain of 5-hydroxytryptamine receptor 1B (P28222 whole entry): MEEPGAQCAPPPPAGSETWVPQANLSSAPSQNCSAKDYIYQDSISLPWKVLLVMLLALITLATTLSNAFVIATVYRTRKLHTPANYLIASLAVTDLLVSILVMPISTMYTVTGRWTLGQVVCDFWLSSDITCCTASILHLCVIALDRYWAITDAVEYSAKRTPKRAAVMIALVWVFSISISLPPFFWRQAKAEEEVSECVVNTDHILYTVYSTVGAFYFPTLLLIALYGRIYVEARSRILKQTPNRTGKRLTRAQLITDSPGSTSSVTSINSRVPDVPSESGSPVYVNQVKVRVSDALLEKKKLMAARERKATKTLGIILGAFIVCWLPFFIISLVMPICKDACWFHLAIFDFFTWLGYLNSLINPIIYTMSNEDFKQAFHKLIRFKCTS

[21] = Binding affinity to adrenergic alpha1 receptor by radioligand displacement assay
D(2) dopamine receptor = D(2) dopamine receptor (Homo sapiens, UniProt P14416); assay: Binding affinity to human dopamine D2S receptor by radioligand displacement assay
Chain of D(2) dopamine receptor (P14416 whole entry): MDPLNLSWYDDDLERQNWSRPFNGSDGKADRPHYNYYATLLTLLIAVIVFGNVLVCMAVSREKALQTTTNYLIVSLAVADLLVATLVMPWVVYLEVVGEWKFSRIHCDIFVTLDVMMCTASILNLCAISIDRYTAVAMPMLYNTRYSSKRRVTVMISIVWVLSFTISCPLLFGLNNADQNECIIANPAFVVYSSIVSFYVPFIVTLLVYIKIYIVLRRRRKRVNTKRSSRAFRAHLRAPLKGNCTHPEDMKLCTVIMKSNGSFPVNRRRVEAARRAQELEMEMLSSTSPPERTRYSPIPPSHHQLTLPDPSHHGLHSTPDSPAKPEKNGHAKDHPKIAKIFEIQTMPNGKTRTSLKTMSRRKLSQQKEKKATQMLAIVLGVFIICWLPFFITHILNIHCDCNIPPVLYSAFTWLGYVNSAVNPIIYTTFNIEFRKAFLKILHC

[22] = Binding affinity to PDE4 by enzyme assay
[23] = biological target: Mitogen-activated protein kinase 14 (Homo sapiens, UniProt Q16539); assay: Binding affinity to p38alpha by enzyme assay
[24] = Protein binding in rat plasma at 0.1 uM after 60 mins by LC/MS-MS analysis; format: ADME, cell-free; settings: read-out: PPB (converted)
[25] = biological target: T2, Muscarinic acetylcholine receptor M4 (Homo sapiens, UniProt P08173); assay: Displacement of [3H]-4-DAMP from human muscarinic M4 receptor expressed in BHK-21 cells; format: cell-based
T2 sequence (P08173 whole entry): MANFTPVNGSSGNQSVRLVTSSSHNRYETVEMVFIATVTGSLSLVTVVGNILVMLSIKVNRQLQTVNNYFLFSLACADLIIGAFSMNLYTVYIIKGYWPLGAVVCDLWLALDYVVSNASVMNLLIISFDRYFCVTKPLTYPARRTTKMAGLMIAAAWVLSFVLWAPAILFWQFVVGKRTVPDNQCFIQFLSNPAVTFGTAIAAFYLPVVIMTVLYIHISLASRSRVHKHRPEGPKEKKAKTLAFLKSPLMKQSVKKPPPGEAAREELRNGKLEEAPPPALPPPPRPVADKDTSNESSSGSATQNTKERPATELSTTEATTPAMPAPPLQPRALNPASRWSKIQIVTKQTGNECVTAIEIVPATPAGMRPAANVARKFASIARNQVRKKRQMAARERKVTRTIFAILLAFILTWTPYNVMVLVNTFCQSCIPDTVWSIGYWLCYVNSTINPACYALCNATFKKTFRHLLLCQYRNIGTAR

[26] = Ratio of brain to plasma AUC in Sprague-Dawley rat at 10 mg/kg, sc; format: ADME, organism-based; set-up: dose 10 mg/kg, route subcutaneous
[27] = Volume of distribution at steady state in rat plasma at 1 mg/kg, iv and 2 mg/kg, po; format: ADME, organism-based; settings: read-out: Vdss
[28] = biological target: Beta-2 adrenergic receptor (Homo sapiens, UniProt P07550); assay: Binding affinity to adrenergic beta2 receptor by radioligand displacement assay
Chain of Beta-2 adrenergic receptor (P07550 whole entry): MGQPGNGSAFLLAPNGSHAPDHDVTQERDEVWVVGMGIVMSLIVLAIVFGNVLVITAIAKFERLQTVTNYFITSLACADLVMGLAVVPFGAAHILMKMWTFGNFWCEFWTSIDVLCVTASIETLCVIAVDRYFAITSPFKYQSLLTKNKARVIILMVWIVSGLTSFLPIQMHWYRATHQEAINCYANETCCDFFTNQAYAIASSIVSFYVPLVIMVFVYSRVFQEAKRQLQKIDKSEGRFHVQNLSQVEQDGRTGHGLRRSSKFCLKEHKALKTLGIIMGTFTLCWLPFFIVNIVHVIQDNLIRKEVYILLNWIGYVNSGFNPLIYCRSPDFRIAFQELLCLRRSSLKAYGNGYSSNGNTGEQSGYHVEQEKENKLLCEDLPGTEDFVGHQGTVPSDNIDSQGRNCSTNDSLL

Chain of Nischarin (Q9Y2I1 whole entry): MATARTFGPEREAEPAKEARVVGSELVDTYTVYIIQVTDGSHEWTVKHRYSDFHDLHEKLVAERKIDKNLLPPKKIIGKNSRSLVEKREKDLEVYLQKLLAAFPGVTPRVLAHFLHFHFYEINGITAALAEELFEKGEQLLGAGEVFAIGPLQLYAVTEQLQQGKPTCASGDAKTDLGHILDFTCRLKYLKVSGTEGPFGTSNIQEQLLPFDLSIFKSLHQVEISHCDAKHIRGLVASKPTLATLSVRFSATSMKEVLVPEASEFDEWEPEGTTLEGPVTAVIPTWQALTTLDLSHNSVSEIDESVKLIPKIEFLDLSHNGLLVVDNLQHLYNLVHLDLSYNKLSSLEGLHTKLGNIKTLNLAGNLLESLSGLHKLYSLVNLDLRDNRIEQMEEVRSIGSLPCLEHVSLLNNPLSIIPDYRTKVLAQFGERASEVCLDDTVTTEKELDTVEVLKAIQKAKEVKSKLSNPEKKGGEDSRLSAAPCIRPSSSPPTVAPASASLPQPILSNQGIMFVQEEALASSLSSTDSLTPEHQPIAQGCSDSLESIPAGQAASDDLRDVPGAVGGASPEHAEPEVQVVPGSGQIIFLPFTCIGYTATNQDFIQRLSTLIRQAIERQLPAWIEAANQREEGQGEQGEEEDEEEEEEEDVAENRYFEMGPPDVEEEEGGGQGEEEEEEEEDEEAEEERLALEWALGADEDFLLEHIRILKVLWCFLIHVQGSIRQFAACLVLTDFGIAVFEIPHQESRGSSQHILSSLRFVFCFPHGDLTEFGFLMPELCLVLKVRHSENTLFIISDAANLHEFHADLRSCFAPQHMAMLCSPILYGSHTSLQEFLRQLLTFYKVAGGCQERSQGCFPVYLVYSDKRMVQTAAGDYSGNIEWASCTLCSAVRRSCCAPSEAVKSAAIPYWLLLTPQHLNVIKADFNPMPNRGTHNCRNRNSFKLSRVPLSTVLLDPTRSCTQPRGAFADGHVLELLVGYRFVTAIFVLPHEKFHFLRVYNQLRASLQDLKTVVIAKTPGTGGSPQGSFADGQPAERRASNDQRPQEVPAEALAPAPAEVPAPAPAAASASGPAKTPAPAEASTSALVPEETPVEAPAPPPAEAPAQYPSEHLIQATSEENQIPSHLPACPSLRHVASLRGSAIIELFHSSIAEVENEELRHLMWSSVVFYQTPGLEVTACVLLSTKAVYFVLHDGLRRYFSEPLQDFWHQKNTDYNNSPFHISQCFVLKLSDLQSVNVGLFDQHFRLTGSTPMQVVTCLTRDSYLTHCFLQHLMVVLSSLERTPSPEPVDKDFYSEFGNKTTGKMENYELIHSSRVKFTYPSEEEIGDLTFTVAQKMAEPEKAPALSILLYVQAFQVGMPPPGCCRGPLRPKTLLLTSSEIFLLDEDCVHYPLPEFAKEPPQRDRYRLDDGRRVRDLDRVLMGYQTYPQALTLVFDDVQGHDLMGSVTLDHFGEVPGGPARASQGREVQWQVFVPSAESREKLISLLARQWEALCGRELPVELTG

**Q.** With `O=C(Cc1ccccc1)NC1CCN(CCCN2C(=O)COc3ccccc32)CC1` as the molecule, how does the Ki [1] read?
**A.** ≥ 1000 nM

**Q.** What about the Ki (Nischarin) of the same molecule?
**A.** ≥ 1000 nM

**Q.** What about the Ki [2] of the same molecule?
**A.** ≥ 1000 nM

**Q.** And the Ki [3]?
**A.** ≥ 1000 nM

**Q.** And the Activity (Mus musculus [4])?
**A.** Dose-dependent effect

**Q.** What about the concentration at 1 h [5] of the same molecule?
**A.** 240 ng/g

**Q.** And the Ki [6]?
**A.** ≥ 1000 nM

**Q.** And the Ki [7]?
**A.** ≥ 1000 nM

**Q.** And the Ki [8]?
**A.** ≥ 1000 nM

**Q.** And the Ki [9]?
**A.** ≥ 1000 nM

**Q.** And the QH (Rattus norvegicus)?
**A.** 20 mL/min

**Q.** What about the Ki [10] of the same molecule?
**A.** ≥ 1000 nM

**Q.** And the Ki [11]?
**A.** ≥ 1000 nM

**Q.** And the Ki (Endothelin-1 receptor)?
**A.** ≥ 1000 nM

**Q.** And the half-life [12]?
**A.** 48 min

**Q.** What about the Ki [13] of the same molecule?
**A.** ≥ 1000 nM

**Q.** And the Activity [14]?
**A.** inactive

**Q.** What about the Ki [15] of the same molecule?
**A.** ≥ 1000 nM

**Q.** What about the Ki (Histamine H1 receptor) of the same molecule?
**A.** 780 nM

**Q.** What about the Activity (Mus musculus [16]) of the same molecule?
**A.** 80%

**Q.** And the Ki [17]?
**A.** ≥ 1000 nM

**Q.** And the Ki [18]?
**A.** ≥ 1000 nM

**Q.** What about the Ki [19] of the same molecule?
**A.** ≥ 1000 nM

**Q.** What about the Ki [20] of the same molecule?
**A.** ≥ 1000 nM

**Q.** And the Ki [21]?
**A.** ≥ 1000 nM

**Q.** And the Ki (D(2) dopamine receptor)?
**A.** ≥ 1000 nM

**Q.** And the Ki [22]?
**A.** ≥ 1000 nM

**Q.** And the Ki [23]?
**A.** ≥ 1000 nM

**Q.** And the fraction unbound at 1 h, 0.1 µM [24]?
**A.** 0.48

**Q.** What about the Ki [25] of the same molecule?
**A.** 6900 nM

**Q.** And the Kp [26]?
**A.** 0.2

**Q.** What about the Vd [27] of the same molecule?
**A.** 4.8 L/kg

**Q.** And the Ki [28]?
**A.** ≥ 1000 nM
